Patent publication US20230303570A1, “KINASE INHIBITORS AND USES THEREOF” (ABM Therapeutics Corporation, priority 2020, published 2023)
pIC50: −log10 of the molar value.

What was measured:
[1] = target: HPK1 (MAP4K1) (Homo sapiens, UniProt Q92918); experiment: HPK1 (MAP4K1) kinase Lantha screen assay; format: biochemical
How it was run: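 Recombinant MAP4K1 preincubated 10 min with compound (6-point dilution, duplicates) in 50 mM HEPES pH 7.5, 10 mM MgCl2, then reacted with Fluorescein-PKC substrate and ATP for 90 min at room temperature. Antibody detection solution stopped reaction; after 60 min, TR-FRET read at ex 340 nm, em 520/495 nm.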

[2] = target: RET (Homo sapiens, UniProt P07949); experiment: RET kinase mobility shift assay; format: biochemical
Protocol: (§1) The effect of the compounds on the activity of cKit, RET and AXL kinases were assessed by Mobility shift assay. • 1. 1× kinase base buffer and stop buffer for testing kinases were prepared • 1-1) 1× Kinase base buffer (50 mM HEPES, pH 7.5, 0.01% Triton X-100) • 1-2) Stop buffer (100 mM HEPES, pH 7.5, 0.015% Brij-35, 0.2% Coating Reagent #3, 50 mM EDTA) • 2. Compound and assay plate preparation: the compound was diluted to 50× of the final desired highest inhibitor concentration in reaction by 100% DMSO. 100 μl of this compound dilution was transferred to a well in a 96-well plate. For example, if the highest desired concentration was 5 μM, then 250 μM of compound DMSO solution was prepared in this step. For all compounds, the compound was serially diluted by transferring 10 μl to 70 μl of 100 DMSO in the next well and so forth for a total of 5 concentrations. 100 μl of 100% DMSO was added to two empty wells for no compound control and no enzyme control in the same 96-well plate. The plate was labeled as source plate. The intermediate plate was prepared by transferring 10 μl of compound from source plate to a new 96-well plate as the intermediate plate, adding 90 μl of 1× kinase buffer to each well of the intermediate plate, mixing the compounds in intermediate plate for 10 min on shaker. 5 μl of each well from the 96-well intermediate plate were transferred to a 384-well plate in duplicates. For example, A1 of the 96-well plate was transferred to A1 and A2 of the 384-well plate. A2 of the 96-well plate was transferred to A3 and A4 of the 384-well plate, and so on. • 4. Kinase reaction: The assay plate already contained 5 μl of compound in 10% DMSO. A 2.5× enzyme solution was prepared by adding kinases (cKit, RET, or AXL) and DTT in 1× kinase base buffer. 2.5× enzyme solution was transferred to the assay plate (by adding 10 μl of 2.5× enzyme solution to each well of the 384-well assay plate). The plate was incubated at room temperature for 10 min. 2.5× peptide solution was prepared by adding FAM-labeled peptide, ATP, MgCl2 in the 1× kinase base buffer. 2.5× peptide solution was added to the assay plate by adding 10 μl of 2.5× peptide solution to each well of the 384-well assay plate. The plate was incubated at 28° C. for the specified period of time. 25 μl of stop buffer was added to stop reaction. Data was collected on Caliper.

[3] = target: T1, Axl (Homo sapiens, UniProt P30530); experiment: AXL kinase mobility shift assay; format: biochemical
T1 sequence (P30530 26-894): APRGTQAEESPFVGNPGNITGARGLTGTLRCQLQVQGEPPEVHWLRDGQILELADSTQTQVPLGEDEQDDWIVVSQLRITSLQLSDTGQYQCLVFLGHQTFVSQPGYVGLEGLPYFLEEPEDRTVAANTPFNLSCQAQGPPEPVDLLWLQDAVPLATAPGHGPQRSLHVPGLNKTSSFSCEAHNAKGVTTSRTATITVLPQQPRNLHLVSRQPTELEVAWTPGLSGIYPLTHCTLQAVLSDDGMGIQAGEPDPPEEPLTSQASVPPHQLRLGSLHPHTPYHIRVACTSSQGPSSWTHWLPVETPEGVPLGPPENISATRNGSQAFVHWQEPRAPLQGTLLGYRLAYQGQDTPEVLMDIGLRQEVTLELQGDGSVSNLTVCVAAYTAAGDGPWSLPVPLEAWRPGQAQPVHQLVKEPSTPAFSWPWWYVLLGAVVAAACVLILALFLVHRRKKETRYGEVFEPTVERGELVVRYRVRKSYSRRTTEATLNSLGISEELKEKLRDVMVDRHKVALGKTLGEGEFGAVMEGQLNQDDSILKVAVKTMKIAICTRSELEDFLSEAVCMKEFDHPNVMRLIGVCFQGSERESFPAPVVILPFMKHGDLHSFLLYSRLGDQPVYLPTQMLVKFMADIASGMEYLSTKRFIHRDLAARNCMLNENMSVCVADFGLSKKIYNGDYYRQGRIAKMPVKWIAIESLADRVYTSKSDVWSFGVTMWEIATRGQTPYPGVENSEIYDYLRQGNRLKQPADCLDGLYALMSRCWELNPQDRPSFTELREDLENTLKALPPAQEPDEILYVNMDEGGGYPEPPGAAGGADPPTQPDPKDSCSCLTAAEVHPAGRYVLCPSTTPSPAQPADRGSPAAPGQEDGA
Protocol: as §1

[4] = target: c-Kit (Homo sapiens, UniProt P10721); experiment: cKit kinase mobility shift assay; format: biochemical
How it was run: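 Human kinase with DTT in 50 mM HEPES pH 7.5 and 0.01% Triton X-100 was preincubated with compound for 10 min at room temperature, using a 5-point dilution in duplicate. FAM-labeled peptide, ATP and MgCl2 were then added and the reaction run at 28° C. Reactions were stopped with EDTA buffer and peptide conversion was read by Caliper mobility shift.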

[5] = target: T2, PAK1 (Homo sapiens, UniProt Q13153); experiment: In vitro kinase assay, PAK1 (Caliper EZ Reader conversion); format: biochemical; parameters: purchased Carna Biosciences
How it was run: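 Human PAK1 was preincubated with compound (6 concentrations, 4-fold dilutions) for 10 min at room temperature, then reacted with substrate mix for 30 and 60 min. Substrate conversion was read by Caliper mobility shift. IC50 was fitted by variable-slope log(inhibitor)–response, normalised to FRAX597 and buffer controls.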

[6] = target: T2, PAK1; settings: background statement on known PAK1 inhibitors; result in words only; cited from earlier work
[7] = tested on: P-glycoprotein (MDR1); experiment: in vitro; settings: dog, MDCK-MDR1

Sequence of RET (P07949 29-1114, species assumed): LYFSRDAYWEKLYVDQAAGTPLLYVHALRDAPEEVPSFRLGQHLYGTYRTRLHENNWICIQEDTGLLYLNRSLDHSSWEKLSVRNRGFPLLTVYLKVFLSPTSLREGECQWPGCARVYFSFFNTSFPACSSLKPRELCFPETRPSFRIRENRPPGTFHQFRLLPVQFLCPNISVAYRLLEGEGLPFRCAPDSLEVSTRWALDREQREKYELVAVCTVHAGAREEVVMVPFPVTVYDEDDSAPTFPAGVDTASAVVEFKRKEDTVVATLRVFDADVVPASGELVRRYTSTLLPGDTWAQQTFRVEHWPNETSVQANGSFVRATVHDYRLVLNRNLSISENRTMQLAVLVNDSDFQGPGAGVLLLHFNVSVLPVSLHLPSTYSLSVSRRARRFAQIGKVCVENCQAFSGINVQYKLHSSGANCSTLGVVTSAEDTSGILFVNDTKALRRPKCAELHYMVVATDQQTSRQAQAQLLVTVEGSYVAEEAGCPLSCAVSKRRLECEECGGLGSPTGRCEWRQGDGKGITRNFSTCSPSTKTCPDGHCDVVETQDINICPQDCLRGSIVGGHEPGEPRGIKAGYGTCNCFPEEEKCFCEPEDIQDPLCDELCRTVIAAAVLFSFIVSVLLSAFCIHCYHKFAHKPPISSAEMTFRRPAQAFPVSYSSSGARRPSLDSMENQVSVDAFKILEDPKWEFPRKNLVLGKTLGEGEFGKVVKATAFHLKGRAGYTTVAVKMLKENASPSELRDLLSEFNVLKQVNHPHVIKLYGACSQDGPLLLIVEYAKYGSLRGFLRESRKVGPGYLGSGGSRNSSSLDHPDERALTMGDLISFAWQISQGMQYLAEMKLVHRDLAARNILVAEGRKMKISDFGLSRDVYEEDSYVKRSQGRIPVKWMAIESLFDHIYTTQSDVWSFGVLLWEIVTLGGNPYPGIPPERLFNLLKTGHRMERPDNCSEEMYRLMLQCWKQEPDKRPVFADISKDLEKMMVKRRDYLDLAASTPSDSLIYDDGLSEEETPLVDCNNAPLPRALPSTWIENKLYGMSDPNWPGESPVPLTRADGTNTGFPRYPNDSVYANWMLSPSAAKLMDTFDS
Sequence of HPK1 (MAP4K1) (Q92918 whole entry, species assumed): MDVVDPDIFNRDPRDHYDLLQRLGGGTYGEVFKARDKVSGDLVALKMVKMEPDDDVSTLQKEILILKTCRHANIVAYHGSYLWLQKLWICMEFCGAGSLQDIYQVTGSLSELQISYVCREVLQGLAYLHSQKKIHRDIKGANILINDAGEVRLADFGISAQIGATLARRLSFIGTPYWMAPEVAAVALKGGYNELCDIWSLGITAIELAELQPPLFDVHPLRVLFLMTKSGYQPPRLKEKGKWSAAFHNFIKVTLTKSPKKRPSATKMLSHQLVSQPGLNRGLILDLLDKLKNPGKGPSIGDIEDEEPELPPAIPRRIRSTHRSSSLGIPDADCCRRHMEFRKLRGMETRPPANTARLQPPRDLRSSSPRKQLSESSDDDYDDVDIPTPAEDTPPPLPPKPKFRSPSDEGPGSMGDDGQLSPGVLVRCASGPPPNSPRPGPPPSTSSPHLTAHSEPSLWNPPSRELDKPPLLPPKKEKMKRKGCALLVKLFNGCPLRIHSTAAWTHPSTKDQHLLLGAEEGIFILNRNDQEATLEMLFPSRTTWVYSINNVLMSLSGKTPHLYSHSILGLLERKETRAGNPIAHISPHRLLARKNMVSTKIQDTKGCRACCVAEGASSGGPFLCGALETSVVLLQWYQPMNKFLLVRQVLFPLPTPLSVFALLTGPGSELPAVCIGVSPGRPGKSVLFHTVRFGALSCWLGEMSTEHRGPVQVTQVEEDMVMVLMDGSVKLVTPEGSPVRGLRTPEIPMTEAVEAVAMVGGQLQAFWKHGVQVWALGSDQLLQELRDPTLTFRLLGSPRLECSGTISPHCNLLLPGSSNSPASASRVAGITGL
Sequence of c-Kit (P10721 26-976): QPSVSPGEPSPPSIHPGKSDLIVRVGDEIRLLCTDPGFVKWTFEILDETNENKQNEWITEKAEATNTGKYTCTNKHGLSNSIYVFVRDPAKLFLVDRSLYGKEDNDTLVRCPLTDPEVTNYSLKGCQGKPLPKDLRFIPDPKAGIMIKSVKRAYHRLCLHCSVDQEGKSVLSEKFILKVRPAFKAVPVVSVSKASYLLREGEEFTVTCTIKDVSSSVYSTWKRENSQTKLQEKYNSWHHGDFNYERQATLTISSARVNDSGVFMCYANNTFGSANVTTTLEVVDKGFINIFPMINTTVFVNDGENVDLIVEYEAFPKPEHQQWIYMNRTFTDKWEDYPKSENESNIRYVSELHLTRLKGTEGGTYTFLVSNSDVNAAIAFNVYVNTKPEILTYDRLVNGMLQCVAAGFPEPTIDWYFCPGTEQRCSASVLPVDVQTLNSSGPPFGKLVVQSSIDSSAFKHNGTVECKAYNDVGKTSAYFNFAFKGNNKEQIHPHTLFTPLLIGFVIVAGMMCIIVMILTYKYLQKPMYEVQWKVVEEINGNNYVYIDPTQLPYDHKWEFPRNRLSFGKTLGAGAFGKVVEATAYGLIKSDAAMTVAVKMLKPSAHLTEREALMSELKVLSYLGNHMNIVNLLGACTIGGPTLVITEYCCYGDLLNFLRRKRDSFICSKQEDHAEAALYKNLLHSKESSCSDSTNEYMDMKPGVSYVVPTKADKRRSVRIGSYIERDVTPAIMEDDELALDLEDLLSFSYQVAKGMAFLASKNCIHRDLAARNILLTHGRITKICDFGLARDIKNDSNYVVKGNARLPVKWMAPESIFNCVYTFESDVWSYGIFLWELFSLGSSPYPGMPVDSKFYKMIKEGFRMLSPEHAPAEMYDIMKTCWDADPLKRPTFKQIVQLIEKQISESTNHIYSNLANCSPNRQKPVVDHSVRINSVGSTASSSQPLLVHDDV
T2 sequence (Q13153 whole entry): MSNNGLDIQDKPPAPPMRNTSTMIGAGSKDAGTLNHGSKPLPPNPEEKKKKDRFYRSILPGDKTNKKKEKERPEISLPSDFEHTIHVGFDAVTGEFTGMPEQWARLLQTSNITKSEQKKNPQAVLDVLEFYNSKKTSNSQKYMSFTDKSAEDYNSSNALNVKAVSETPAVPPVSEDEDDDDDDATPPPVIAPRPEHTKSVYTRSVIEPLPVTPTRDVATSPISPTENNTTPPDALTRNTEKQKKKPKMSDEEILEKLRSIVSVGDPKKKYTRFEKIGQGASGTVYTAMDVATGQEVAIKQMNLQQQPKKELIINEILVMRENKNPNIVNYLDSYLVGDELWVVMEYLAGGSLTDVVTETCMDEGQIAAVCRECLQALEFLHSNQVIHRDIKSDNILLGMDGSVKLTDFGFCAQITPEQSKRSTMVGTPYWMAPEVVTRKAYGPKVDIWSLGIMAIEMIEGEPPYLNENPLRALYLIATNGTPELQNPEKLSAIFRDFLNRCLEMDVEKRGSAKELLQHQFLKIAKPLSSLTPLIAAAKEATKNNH

pIC50 [1]	pIC50 [2]	SMILES	also measured
< 5.00	< 5.00	CNc1nc(C)c2c(n1)N1CCN=C1C(c1cc(NC(=O)c3cc(C(F)(F)F)ccn3)ccc1C)=C2 [Compound 122, N-(4-methyl-3-(4-methyl-2-(methylamino)-8,9-dihydroimidazo[1′,2′:1,6]pyrido[2,3-d]pyrimidin-6-yl)phenyl)-4-(trifluoromethyl)picolinamide]	
> 7.00	> 7.00	CNc1ncc2c(n1)N1C(=NC[C@@H]1C)C(c1cc(NC(=O)c3cc(C(F)(F)F)ccn3)ccc1C)=C2 [Compound 130, (S)—N-(4-methyl-3-(9-methyl-2-(methylamino)-8,9-dihydroimidazo[1′,2′:1,6]pyrido[2,3-d]pyrimidin-6-yl)phenyl)-4-(trifluoromethyl)picolinamide]	
< 5.00	5.00 to 7.00	CNc1ncc2c(n1)N1CCN=C1C(c1ccc(NC(=O)C3(C(=O)Nc4ccc(F)cc4)CC3)cc1F)=C2 [Compound 340, N-(3-fluoro-4-(2-(methylamino)-8,9-dihydroimidazo[1′,2′:1,6]pyrido[2,3-d]pyrimidin-6-yl)phenyl)-N-(4-fluorophenyl)cyclopropane-1,1-dicarboxamide]	pIC50 [3]: < 5.00
5.00 to 7.00	5.00 to 7.00	CNc1ncc2c(n1)N1CCN=C1C(c1cc(NC(=O)c3cc(C(F)(F)F)ccn3)ccc1C)=C2C [Compound 120, N-(4-methyl-3-(5-methyl-2-(methylamino)-8,9-dihydroimidazo[1′,2′:1,6]pyrido[2,3-d]pyrimidin-6-yl)phenyl)-4-(trifluoromethyl)picolinamide]	
5.00 to 7.00	> 7.00	CNc1ncc2c(n1)N1CCN=C1C(c1cc(NC(=O)c3cc(C(F)(F)F)ccn3)ccc1C)=C2 [Compound 107, N-(4-methyl-3-(2-(methylamino)-8,9-dihydroimidazo[1′,2′:1,6]pyrido[2,3-d]pyrimidin-6-yl)phenyl)-4-(trifluoromethyl)picolinamide]	pIC50 [4]: > 7.00; pIC50 [5]: < 5.00
		CNc1ncc2cc(-c3ccc(-c4cccc(C)n4)cc3Cl)c(=O)n(C[C@H]3OC[C@H](N)CO3)c2n1 [Compound G-5555]	inhibition of the PAK1 enzyme [6]: potent PAK1 inhibitors
5.00 to 7.00	5.00 to 7.00	CNc1ncc2c(n1)N1C(=NC[C@H]1C)C(c1cc(NC(=O)c3cc(C(F)(F)F)ccn3)ccc1C)=C2 [Compound 129, (R)—N-(4-methyl-3-(9-methyl-2-(methylamino)-8,9-dihydroimidazo[1′,2′:1,6]pyrido[2,3-d]pyrimidin-6-yl)phenyl)-4-(trifluoromethyl)picolinamide]	
5.00 to 7.00	> 7.00	CNc1ncc2c(n1)N1CCN=C1C(c1cc(NC(=O)c3cc(C(F)(F)F)ccn3)ccc1Cl)=C2 [Compound 136, N-(4-chloro-3-(2-(methylamino)-8,9-dihydroimidazo[1′,2′:1,6]pyrido[2,3-d]pyrimidin-6-yl)phenyl)-4-(trifluoromethyl)picolinamide]	pIC50 [4]: > 7.00
5.00 to 7.00		CNc1ncc2c(n1)N1CCN=C1C(c1cc(NC(=O)Nc3cccc(C(F)(F)F)c3)c(F)cc1C)=C2 [Compound 330, 1-(2-fluoro-4-methyl-5-(2-(methylamino)-8,9-dihydroimidazo[1′,2′:1,6]pyrido[2,3-d]pyrimidin-6-yl)phenyl)-3-(3-(trifluoromethyl)phenyl)urea]	pIC50 [4]: > 7.00; pIC50 [3]: < 5.00
> 7.00	> 7.00	Cc1ccc(Nc2ncc3c(n2)N2CCN=C2C(c2cc(NC(=O)c4cc(C(F)(F)F)ccn4)ccc2C)=C3)cn1 [Compound 208, N-(4-methyl-3-(2-((6-methylpyridin-3-yl)amino)-8,9-dihydroimidazo[1′,2′:1,6]pyrido[2,3-d]pyrimidin-6-yl)phenyl)-4-(trifluoromethyl)picolinamide]	
> 7.00		Cc1ccc(NC(=O)c2cc(C(F)(F)F)ccn2)cc1C1=Cc2cnc(NC3CCOCC3)nc2N2CCN=C12 [Compound 115, N-(4-methyl-3-(2-((tetrahydro-2H-pyran-4-yl)amino)-8,9-dihydroimidazo[1′,2′:1,6]pyrido[2,3-d]pyrimidin-6-yl)phenyl)-4-(trifluoromethyl)picolinamide hydrogen chloride]	pIC50 [4]: > 7.00; Papp A→B at 120 min [7]: 22.8 ×10⁻⁶ cm/s; Papp B→A at 120 min [7]: 36.9 ×10⁻⁶ cm/s; efflux ratio at 120 min [7]: 1.6
> 7.00	5.00 to 7.00	CNc1ncc2c(n1)N1CCN=C1C(c1cc(NC(=O)C3(C(=O)Nc4ccc(F)cc4)CC3)ccc1F)=C2 [Compound 341, N-(4-fluoro-3-(2-(methylamino)-8,9-dihydroimidazo[1′,2′:1,6]pyrido[2,3-d]pyrimidin-6-yl)phenyl)-N-(4-fluorophenyl)cyclopropane-1,1-dicarboxamide]	pIC50 [3]: < 5.00
5.00 to 7.00	> 7.00	Cc1ccc(NC(=O)c2cc(C(F)(F)F)ccn2)cc1C1=Cc2cnc(NCCF)nc2N2CCN=C12 [Compound 111, N-(3-(2-((2-fluoroethyl)amino)-8,9-dihydroimidazo[1′,2′:1,6]pyrido[2,3-d]pyrimidin-6-yl)-4-methylphenyl)-4-(trifluoromethyl)picolinamide]	
5.00 to 7.00	5.00 to 7.00	CNc1ncc2c(n1)N1CCN=C1C(c1cc(NC(=O)c3cc(C(F)(F)F)ccn3)ccc1F)=C2C [Compound 121, N-(4-fluoro-3-(5-methyl-2-(methylamino)-8,9-dihydroimidazo[1′,2′:1,6]pyrido[2,3-d]pyrimidin-6-yl)phenyl)-4-(trifluoromethyl)picolinamide]	
5.00 to 7.00	> 7.00	CNc1ncc2c(n1)N1CCN=C1C(c1cc(NC(=O)c3cc(C(F)(F)F)ccn3)ccc1F)=C2 [Compound 135, N-(4-fluoro-3-(2-(methylamino)-8,9-dihydroimidazo[1′,2′:1,6]pyrido[2,3-d]pyrimidin-6-yl)phenyl)-4-(trifluoromethyl)picolinamide]	
